# Results: patent US8557816B2, “Aurora kinase modulators and method of use” (Amgen Inc., priority 2007, dated 2013)
# Tests used:
# [1] = target: T1, AuroraA-TPX2 (Homo sapiens, UniProt O14965); test: AuroraA-TPX2 Homogeneous Time Resolved Fluorescent (HTRF) kinase assay; format: biochemical; conditions: average; read-out: AurA_IC50_IP (uM Avg)
# T1 construct: 20 μL of AuroraA-TPX2 KD GST for a final volume of about 41 μL; GST
# T1 sequence (O14965 133-383 limits assumed): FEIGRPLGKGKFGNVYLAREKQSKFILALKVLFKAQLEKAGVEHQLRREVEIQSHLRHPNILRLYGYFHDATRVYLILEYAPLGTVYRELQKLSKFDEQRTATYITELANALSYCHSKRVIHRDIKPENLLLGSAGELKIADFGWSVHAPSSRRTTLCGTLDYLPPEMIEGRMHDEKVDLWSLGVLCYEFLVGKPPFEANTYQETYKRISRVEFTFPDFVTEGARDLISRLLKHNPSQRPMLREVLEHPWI
# T1 sequence (Q9ULW0 1-43 partner limits assumed): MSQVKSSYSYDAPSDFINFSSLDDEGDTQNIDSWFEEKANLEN
# Procedure, shortened: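 HTRF read-out (Eu 615 nm to APC 655 nm) of phosphorylated biotin-PLK, detected with 0.02 nM europium anti-phosphoPLK antibody and 0.0005 mg/mL SA-APC after overnight equilibration.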
# [2] = target: T2, AuroraB (Homo sapiens, UniProt Q96GD4); test: AuroraB Homogeneous Time Resolved Fluorescent (HTRF) kinase assay; format: biochemical; conditions: average; read-out: AurB_IC50_IP (uM Avg)
# T2 construct: 20 μL of AuroraB FL H is for a final volume of 41 μL; His
# T2 sequence (Q96GD4 whole entry): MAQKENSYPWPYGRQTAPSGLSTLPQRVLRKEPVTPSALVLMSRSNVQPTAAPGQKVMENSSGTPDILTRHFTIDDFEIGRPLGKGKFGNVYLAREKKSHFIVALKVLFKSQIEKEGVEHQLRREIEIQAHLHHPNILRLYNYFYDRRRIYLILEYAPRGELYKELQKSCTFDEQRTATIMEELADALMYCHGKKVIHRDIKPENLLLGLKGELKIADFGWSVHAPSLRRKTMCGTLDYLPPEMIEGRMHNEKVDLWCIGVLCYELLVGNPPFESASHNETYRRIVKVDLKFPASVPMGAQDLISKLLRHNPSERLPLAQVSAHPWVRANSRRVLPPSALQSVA
# Procedure, shortened: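 Read-out is time-resolved FRET between europium anti-phospho-H3 antibody and streptavidin-APC, added in EDTA buffer to stop the reaction and equilibrated about 60 min (ex 320, em 615 and 655 nm). Preceding reaction: ~90 min, full-length enzyme, ATP, 0.1 μM biotin-Histone H3 substrate, Mg/Mn HEPES buffer pH 7.5.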
IC50 [1] [µM],IC50 [2] [µM],Compound
0.233,0.011,Cc1csc(-c2nnc(Nc3ccc(Oc4ncnc5ccccc45)cc3)c3ccccc23)c1 [compound 568]
0.416,0.081,Cc1cc2nccc(Sc3ccc(Nc4nnc(-c5ccc(Cl)cn5)c5ccccc45)cc3)c2s1 [compound 560]
0.029,0.006,COc1cnc2c(Sc3ccc(Nc4nnc(N5CCN6CCC[C@@H]6C5)c5ccccc45)cc3)ccnc2c1 [compound 582]
0.27,0.031,COc1ccc2nccc(Sc3ccc(Nc4nnc(N5CCCCC5)c5ccccc45)cc3)c2n1 [compound 548]
0.161,0.059,COc1cnc2c(Sc3ccc(Nc4nnc(N5CCC(F)CC5)c5ccccc45)cc3)ccnc2c1 [compound 557]
0.051,0.017,COc1cnc2c(Sc3ccc(Nc4nnc(-c5ccc(C)nc5)c5ccccc45)cc3)ccnc2c1 [compound 588]
0.033,0.081,COc1cnc2c(Sc3ccc(Nc4nnc(N5CCc6sccc6C5)c5ccccc45)cc3)ccnc2c1 [compound 578]
0.25,0.005,Clc1ccc(-c2nnc(Nc3ccc(Oc4ncnc5ccsc45)cc3)c3ccccc23)cc1 [compound 591]
0.064,0.293,COc1cnc2c(Sc3ccc(Nc4nnc(-c5cc(C)cs5)c5ccccc45)cc3F)ccnc2c1 [compound 528]
0.32,0.05,Cc1csc(-c2nnc(Nc3ccc(Oc4ccnc5cccnc45)cc3)c3cc(F)c(F)cc23)c1 [compound 510]
0.16,0.058,CCc1cc(-c2ccc(C)cc2)nnc1Nc1ccc(Nc2ccnc3cc(C#N)ccc23)cc1 [compound 596]
0.133,0.02,COc1cnc2c(Oc3ccc(Nc4nnc(-c5cc(F)cc(F)c5)c5ccccc45)cc3)ccnc2c1 [compound 539]

# Further lines, the compound ahead of its results:
Compound,IC50 [1] [µM],IC50 [2] [µM]
"COc1cnc2c(Oc3ccc(Nc4nnc(-c5ccc(OC)nc5)c5ccccc45)cc3)ccnc2c1 [compound 158, N-(4-((7-(methyloxy)-1,5-naphthyridin-4-yl)oxy)phenyl)-4-(6-(methyloxy)-3-pyridinyl)-1-phthalazinamine]",0.037,0.005
"CN1CCN(c2nnc(Nc3ccc(Oc4ccnc5cc(C#N)ccc45)cc3)c3ccccc23)CC1 [compound 94, 4-((4-((4-(4-methyl-1-piperazinyl)-1-phthalazinyl)amino)phenyl)oxy)-7-quinolinecarbonitrile]",0.027,0.001
"COc1cnc2c(Oc3ccc(Nc4nnc(-c5cc6ccccc6o5)c5ccccc45)cc3)ccnc2c1 [compound 176, 4-(1-benzofuran-2-yl)-N-(4-((7-(methyloxy)-1,5-naphthyridin-4-yl)oxy)phenyl)-1-phthalazinamine]",0.007,0.002
COc1cnc2c(Sc3ccc(Nc4nnc(N5CCN(CC(F)F)CC5)c5ccccc45)cc3)ccnc2c1 [compound 507],0.152,0.042
"Brc1cnc2c(Oc3ccc(Nc4nnc(-c5ccccc5)c5ccccc45)cc3)ccnc2c1 [compound 245, N-(4-((7-bromo-1,5-naphthyridin-4-yl)oxy)phenyl)-4-phenyl-1-phthalazinamine]",0.153,0.006
"COc1cnc2c(Oc3ccc(Nc4nnc(-c5cccc6[nH]ccc56)c5ccccc45)cc3)ccnc2c1 [compound 183, 4-(1H-indol-4-yl)-N-(4-((7-(methyloxy)-1,5-naphthyridin-4-yl)oxy)phenyl)-1-phthalazinamine]",0.033,0.003
"N#Cc1ccc(-c2nnc(Nc3ccc(Oc4ccnc5cc(C#N)ccc45)cc3)c3ccccc23)cc1 [compound 217, 4-((4-((4-(4-cyanophenyl)-1-phthalazinyl)amino)phenyl)oxy)-7-quinolinecarbonitrile]",0.454,0.016
"COc1cnc2c(Oc3ccc(Nc4nnc(-c5cc(C)c(C)s5)c5ccccc45)cc3)ccnc2c1 [compound 260, 4-(4,5-dimethyl-2-thienyl)-N-(4-((7-(methyloxy)-1,5-naphthyridin-4-yl)oxy)phenyl)-1-phthalazinamine]",0.008,0.009
"N#Cc1ccc2c(Oc3ccc(Nc4nnc(-c5ccc(C(F)(F)F)cc5)c5ccccc45)cc3)ccnc2c1 [compound 147, 4-((4-((4-(4-(trifluoromethyl)phenyl)-1-phthalazinyl)amino)phenyl)oxy)-7-quinolinecarbonitrile]",0.025,0.011
"COc1cnc2c(Oc3ccc(Nc4nnc(-c5ccc(OC)c(F)c5)c5ccccc45)cc3)ccnc2c1 [compound 227, 4-(3-fluoro-4-(methyloxy)phenyl)-N-(4-((7-(methyloxy)-1,5-naphthyridin-4-yl)oxy)phenyl)-1-phthalazinamine]",0.051,0.003
"COc1cnc2c(Oc3ccc(Nc4nnc(-c5ccc(C)nc5F)c5ccccc45)cc3)ccnc2c1 [compound 178, 4-(2-fluoro-6-methyl-3-pyridinyl)-N-(4-((7-(methyloxy)-1,5-naphthyridin-4-yl)oxy)phenyl)-1-phthalazinamine]",0.035,0.002
"Cc1csc(-c2nnc(Nc3ccc(Sc4ccnc5cc[nH]c45)cc3)c3ccccc23)c1 [compound 464, 4-(4-methyl-2-thienyl)-N-(4-(1H-pyrrolo[3,2-b]pyridin-7-ylthio)phenyl)-1-phthalazinamine]",0.088,0.006
"COc1ccc2nccc(Sc3ccc(Nc4nnc(-c5ccc(Cl)cc5)c5ccccc45)cc3)c2c1 [compound 297, 4-(4-chlorophenyl)-N-(4-(6-methoxyquinolin-4-ylthio)phenyl)phthalazin-1-amine]",0.036,0.031
"CCc1cc(-c2ccccc2)nnc1Nc1ccc(Oc2ccnc3cc(C#N)ccc23)cc1 [compound 149, 4-((4-((4-ethyl-6-phenyl-3-pyridazinyl)amino)phenyl)oxy)-7-quinolinecarbonitrile]",0.146,0.014
COc1cc(OC)c2c(Oc3ccc(Nc4nnc(-c5ccc(Cl)cc5)c5ccccc45)cc3)ccnc2c1 [compound 435],0.038,0.121
Oc1cnc2c(Sc3ccc(Nc4nnc(-c5ccccc5)c5ccccc45)cc3)ccnc2c1 [compound 415],0.043,0.012
"COc1cc2nccc(Sc3ccc(Nc4nnc(-c5ccc(Cl)cc5)c5ccccc45)cc3)c2[nH]c1=O [Example 406, 8-(4-(4-(4-Chlorophenyl)phthalazin-1-ylamino)phenylthio)-3-methoxy-1,5-naphthyridin-2(1H)-one]",0.034,0.186
"COc1cnc2c(Oc3ccc(Nc4nnc(-c5cc(C)cs5)c5ccccc45)cc3)ccnc2c1 [compound 152, N-(4-((7-(methyloxy)-1,5-naphthyridin-4-yl)oxy)phenyl)-4-(4-methyl-2-thienyl)-1-phthalazinamine]",0.006,0.006
"COc1ccc2c(Sc3ccc(Nc4nnc(-c5ccccc5)c5ccccc45)cc3)ccnc2c1 [compound 331, N-(4-((7-(methyloxy)-4-quinolinyl)thio)phenyl)-4-phenyl-1-phthalazinamine]",0.192,0.155
"COc1cc2nccc(Oc3ccc(Nc4nnc(-c5ccc(C)cn5)c5ccccc45)cc3)c2cn1 [compound 103, N-(4-((7-(methyloxy)-1,6-naphthyridin-4-yl)oxy)phenyl)-4-(5-methyl-2-pyridinyl)-1-phthalazinamine]",0.035,0.004
"COc1cnc2c(Oc3ccc(Nc4nnc(-c5ccc(OC)c(C)c5)c5ccccc45)cc3)ccnc2c1 [compound 213, 4-(3-methyl-4-(methyloxy)phenyl)-N-(4-((7-(methyloxy)-1,5-naphthyridin-4-yl)oxy)phenyl)-1-phthalazinamine]",0.079,0.011
"Nc1ccc2nccc(Sc3ccc(Nc4nnc(-c5ccccc5)c5ccccc45)cc3)c2c1 [Example 399, N-(4-(6-Aminoquinolin-4-ylthio)phenyl)-4-phenylphthalazin-1-amine]",0.286,0.025
c1ccc(-c2nnc(Nc3ccc(Sc4ccnc5ccoc45)cc3)c3ccccc23)cc1 [compound 466],0.431,0.013
"COc1cnc2c(Oc3ccc(Nc4nnc(-c5ccccc5)c5ccccc45)cn3)ccnc2c1 [Example 41, N-(6-(7-methoxy-1,5-naphthyridin-4-yloxy)pyridin-3-yl)-4-phenylphthalazin-1-amine]",0.079,0.009
Cc1cccc(-c2nnc(Nc3ccc(Sc4ccnc5cccnc45)cc3)c3ccccc23)n1 [compound 421],0.142,0.008
COC1CCN(c2nnc(Nc3ccc(Oc4ccnc5ccoc45)cc3)c3ccccc23)CC1 [compound 478],2.03,0.074
"COc1cnc2c(Oc3ccc(Nc4nnc(-c5cccc(C)c5)c5ccccc45)cc3)ccnc2c1 [compound 317, N-(4-((7-(methyloxy)-1,5-naphthyridin-4-yl)oxy)phenyl)-4-(3-methylphenyl)-1-phthalazinamine]",0.018,0.015
